In patent US20080181928A1, “COATINGS FOR IMPLANTABLE MEDICAL DEVICES FOR LIPOSOME DELIVERY” (MIV Therapeutics, Inc., priority 2006, published 2008) one finds inhibition data, which are given here for one compound.

Assay [1] has as its system THP-1 cells. Kind of assay: THP-1 cell growth in presence of ZA lipid coated stents or molecular ZA (Examples 6 and 7). The class given is cell-based. The following applies: Homo sapiens, THP-1, 96 h, 4 days of culture. Here is the method:
To monitor cell growth in the presence of liposomes containing ZA, 5×10^5 THP-1 cells are plated into 24—well cluster plates (Corning Inc.) in complete RPMI-1640 medium at 1 mL volume. About 3-4 hours later, the lipid coated stents of Example 5 are added into the THP-1 cell culture (5×10^5 cells/mL). The cells in the presence of medium alone or treated with empty liposomes (no drug) served as a control. ZA in molecular form was added for comparison at a concentration of 5 and 1 μg/mL. After 4 days of culture, the cells in each culture were harvested and counted using a hemocytometer; viability was evaluated by trypan blue exclusion method.
The two sets of samples were placed in cell cultures containing THP-1 macrophage type cells. HAp coated stents impregnated with molecular ZA (configuration B) are placed in 2 ml PBS dissolution media and rotated at a speed of 20 rpm at 37.2° C. Samples are taken at various time intervals and analyzed using HPLC.

Assay [2] relates to THP-1 (Human Monocytic Leukemia) cell culture. As to the kind of experiment: THP-1 cell growth inhibition by ZA released from lipid bilayer stent coating (Example 16). The format is cell-based. The conditions noted are these: THP-1, 96 h, 4 days. How it is done: Hydroxyapatite coated stents were further coated with the lipid film in a manner similar to that described in Examples 12 and 13, except that the film contained 2 μg of zoledronic acid (ZA). The stents were added to THP-1 (Human Monocytic Leukemia) cell culture (5×10^5 cells/mL) and compared to ZA alone added at concentration of 5 and 1 μg/mL. After 4 days, the cells in each culture were harvested and counted.

As for `O=P(O)(O)C(O)(Cn1ccnc1)P(=O)(O)O` [ZA, zoledronic acid], the inhibition at 1 µg/mL in assay [1] (1 μg/mL) and in assay [2] (1 μg/mL) was 0.6% each time. Moreover, the inhibition at 5 µg/mL in assay [1] (5 μg/mL) and in assay [2] (5 μg/mL) was 20% each time.

Broadly, the inhibition is the relative decrease from the control value, in per cent.
